Source: US20250333418A1, “PURINE COMPOUNDS, COMPOSITIONS COMPRISING THEM AND USES THEREOF” (Novo Nordisk A/S, priority 2022, published 2025)

What was measured:
human CB1 receptor [1] = molecular target: T1, human CB1 receptor (Homo sapiens, UniProt P21554); test: bioSensAll GAPL-Gi2 BRET biosensor assay in HEK293 cells transfected with hCB1; test compound added before EC75-80 of agonist CP55,940 (0.1 nM); type: cell-based; conditions: vs CP55,940 0.1 nM (EC75-80), read-out: CB1 wt Gi2 IC50
T1 construct: expressed in transfected cells; host or cells: HEK293
Procedure: (§1) Using polyethylenimine (PEI) transfection agent, HEK293 cells were transfected in suspension with the human CB1 receptor and one of the following bioSensAll® assays: GAPL-Gi2, or β-arrestin plasma membrane (PM) translocation biosensor (+GRK2). Cells were directly seeded in 96-well plates immediately following transfection.
(§2) Cells were incubated with coelenterazine (luciferase substrate) and different test compounds prior to the measurement of BRET signals.
(§3) Used in this project are i) Gα plasma membrane (GAPL) biosensors and the ii) β-arrestin plasma membrane translocation biosensor.
i) GAPL sensors are used to monitor the activation of heterotrimeric G proteins at the plasma membrane upon receptor stimulation. Specifically, these multimolecular BRET sensors detect the plasma membrane recruitment of proteins that interact with active Gα subunits in a G protein family-selective manner. G protein activation following receptor stimulation generally leads to an increase in the BRET signal.
(§4) HEK293 cells were maintained in Dulbecco's Modified Eagle Medium (DMEM) (Wisent; cat #319-030-CL: without sodium pyruvate, with 4.5 g/L glucose, without L-glutamine) supplemented with 1% penicillin-streptomycin (Wisent; cat #450-201-EL) and 2 or 10% fetal bovine serum (Wisent cat #090150).
(§5) HEK293 cells were co-transfected with hCB1 and one of the above-listed bioSensAll® assays. For each transfection condition: • the total amount of transfected DNA was kept constant at 1 μg per mL of cell culture to be transfected; whenever necessary, salmon sperm DNA (Invitrogen, cat #15632011) was used as ‘carrier’ DNA to supplement plasmid DNA (i.e., biosensor and receptor); • the PEI (polyethylenimine 25 kDa linear, PolyScience, cat #23966) to DNA ratio (ug:ug) was fixed at 3:1.
(§6) Transfections were carried out as follows: • DNA and PEI were first diluted separately in 150 mM NaCl. The volume of the diluent in each tube corresponds to 5% of the cell culture volume to be transfected. • Once DNA and PEI were diluted, the PEI-containing solution was added to the DNA solution and the DNA/PEI mixture immediately vortexed for 5 seconds. • The DNA/PEI mixture was incubated for at least 20 minutes at room temperature to allow for the formation of DNA/PEI complexes. • During the incubation, HEK293 cells were detached, counted and re-suspended in culture medium (composition specified above). • At the end of the incubation period, the DNA/PEI mixture was added to the cells. • Cells were finally distributed in 96-well plates (White Opaque 96-well/Microplates, Greiner, cat #655083 or CulturPlate-96, White Opaque 96-well Microplate, PerkinElmer, cat #6005688) at a density of 30,000 cells per well.
(§7) At 48 hours post-transfection: • Using 450-Select TS Biotek plate washer, culture medium was aspirated and replaced with 100 μL of Hank's Balanced Salt Solution buffer (HBSS) (Wisent, cat #319-067CL: without red phenol; with sodium bicarbonate, with calcium and magnesium, with HEPES) per well. • Plates were then incubated (equilibrated) at 37° C., 5% CO2 for 60 minutes. • Increasing doses of test compounds were then added to each well using the HP D300e digital dispenser (Tecan). All compounds were assayed at the following 12 concentrations (in nM) with each biosensor: 0.000, 0.013, 0.040, 0.120, 0.320, 0.960, 2.80, 8.00, 24.0, 70.0, 205 and 600. • Three to 5 minutes later, an assay-specific effective concentration (EC)75-80 of agonist CP55,940 (i.e., 0.1 nM and 100 nM for G[…]i2-GAPL or […]Arrestin2 (+GRK2) assay, respectively) was added to wells previously injected with test compound (i.e., previous step 3). […]

human CB1 receptor [2] = molecular target: T1, human CB1 receptor; test: bioSensAll β-arrestin2 plasma membrane translocation (+GRK2) BRET biosensor assay in HEK293 cells transfected with hCB1; test compound added before EC75-80 of agonist CP55,940 (100 nM); type: cell-based; conditions: βArrestin2 (+GRK2) BRET biosensor, vs CP55,940 100 nM (EC75-80), read-out: CB1 wt βarr2 IC50
Procedure: as §1, §2, §3
ii) The multimolecular β-arrestin membrane recruitment biosensors allow for real-time spatio-temporal monitoring of β-arrestin 1 and β-arrestin 2 following GPCR activation. Specifically, these β-arrestin sensors were designed to detect the recruitment of proteins to the plasma membrane (β-arrestin PM) with localization to compartment resulting in an increased BRET signal.
as §4, §5, §6, §7

T1 sequence (P21554 whole entry): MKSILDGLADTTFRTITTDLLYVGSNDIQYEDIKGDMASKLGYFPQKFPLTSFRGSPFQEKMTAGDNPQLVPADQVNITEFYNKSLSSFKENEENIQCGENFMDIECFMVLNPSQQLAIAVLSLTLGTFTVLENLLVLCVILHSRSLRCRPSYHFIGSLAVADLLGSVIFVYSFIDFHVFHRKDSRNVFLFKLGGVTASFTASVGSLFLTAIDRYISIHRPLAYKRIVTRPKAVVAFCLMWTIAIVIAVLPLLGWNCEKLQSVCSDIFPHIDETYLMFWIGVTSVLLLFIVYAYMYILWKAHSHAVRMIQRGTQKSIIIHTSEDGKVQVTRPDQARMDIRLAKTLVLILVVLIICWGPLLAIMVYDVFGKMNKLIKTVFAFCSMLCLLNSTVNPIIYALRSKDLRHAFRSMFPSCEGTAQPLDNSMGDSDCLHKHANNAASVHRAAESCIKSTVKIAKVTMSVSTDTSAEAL

OC[C@H]1CCCN1c1nc(N2CCC(C(F)(F)F)CC2)c2nc(-c3ccccc3Cl)n(-c3ccc(Cl)cc3)c2n1 [Compound 29, [(2R)-1-[8-(2-chlorophenyl)-9-(4-chlorophenyl)-6-[4-(trifluoromethyl)-1-piperidyl]purin-2-yl]pyrrolidin-2-yl]methanol]
IC50 (human CB1 receptor [1]): 6.92 nM | IC50 (human CB1 receptor [2]): > 5000 nM

CN(CC(C)(C)O)c1nc(N2CCC(C)(C(N)=O)CC2)c2nc(-c3ccccc3Cl)n(-c3ccc(Cl)cc3)c2n1 [Compound 40, 1-[8-(2-chlorophenyl)-9-(4-chlorophenyl)-2-[(2-hydroxy-2-methyl-propyl)-methyl-amino]purin-6-yl]-4-methyl-piperidine-4-carboxamide]
IC50 (human CB1 receptor [1]): 0.971 nM | IC50 (human CB1 receptor [2]): 15.3 nM

C[C@@H]1CN(c2nc(OCC(C)(C)O)nc3c2nc(-c2ccccc2Cl)n3-c2ccc(Cl)cc2)CCO1 [Compound 206]
IC50 (human CB1 receptor [1]): 0.782 nM | IC50 (human CB1 receptor [2]): 6.99 nM

CC1(C(N)=O)CCN(c2nc(-n3cnc(CO)c3)nc3c2nc(-c2ccccc2Cl)n3-c2ccc(Cl)cc2)CC1 [Compound 46, 1-[8-(2-chlorophenyl)-9-(4-chlorophenyl)-2-[4-(hydroxymethyl)imidazol-1-yl]purin-6-yl]-4-methyl-piperidine-4-carboxamide]
IC50 (human CB1 receptor [1]): 1.82 nM | IC50 (human CB1 receptor [2]): 9.64 nM

OC[C@@H]1CCCN1c1nc(N2CCC(C(F)(F)F)CC2)c2nc(-c3ccccc3Cl)n(-c3ccc(Cl)cc3)c2n1 [Compound 162, [(2S)-1-[8-(2-chlorophenyl)-9-(4-chlorophenyl)-6-[4-(trifluoromethyl)-1-piperidyl]purin-2-yl]pyrrolidin-2-yl]methanol]
IC50 (human CB1 receptor [1]): 1.3 nM | IC50 (human CB1 receptor [2]): 1.83 nM

CC1(C(N)=O)CCN(c2nc(N3CCNC[C@H]3CO)nc3c2nc(-c2ccccc2Cl)n3-c2ccc(Cl)cc2)CC1 [Compound 5, 1-[8-(2-chlorophenyl)-9-(4-chlorophenyl)-2-[(2S)-2-(hydroxymethyl)piperazin-1-yl]purin-6-yl]-4-methyl-piperidine-4-carboxamide]
IC50 (human CB1 receptor [1]): 0.961 nM | IC50 (human CB1 receptor [2]): 16 nM

CC(C)(O)CNc1nc(N2CCC(C)(C(N)=O)CC2)c2nc(-c3ccccc3Cl)n(-c3ccc(Cl)cc3)c2n1 [Compound 85, 1-[8-(2-chlorophenyl)-9-(4-chlorophenyl)-2-[(2-hydroxy-2-methyl-propyl)amino]purin-6-yl]-4-methyl-piperidine-4-carboxamide]
IC50 (human CB1 receptor [1]): 0.754 nM | IC50 (human CB1 receptor [2]): 6.76 nM

CN(CCO)c1nc(N2CCC(C)(C(N)=O)CC2)c2nc(-c3ccccc3)n(-c3ccc(Cl)cc3)c2n1 [Compound 48, 1-[9-(4-chlorophenyl)-2-[2-hydroxyethyl(methyl)amino]-8-phenyl-purin-6-yl]-4-methyl-piperidine-4-carboxamide]
IC50 (human CB1 receptor [1]): 1.2 nM | IC50 (human CB1 receptor [2]): 5.91 nM

CC1(C(N)=O)CCN(c2nc(N3CCS(=O)(=O)CC3)nc3c2nc(-c2ccccc2Cl)n3-c2ccc(Cl)cc2)CC1 [Compound 16, 1-[8-(2-chlorophenyl)-9-(4-chlorophenyl)-2-(1,1-dioxo-1,4-thiazinan-4-yl)purin-6-yl]-4-methyl-piperidine-4-carboxamide]
IC50 (human CB1 receptor [1]): 0.315 nM | IC50 (human CB1 receptor [2]): 1.51 nM

CC1(C(N)=O)CCN(c2nc(N(CCO)Cc3ccccc3)nc3c2nc(-c2ccccc2Cl)n3-c2ccc(Cl)cc2)CC1 [Compound 12, 1-[2-[benzyl(2-hydroxyethyl)amino]-8-(2-chlorophenyl)-9-(4-chlorophenyl)purin-6-yl]-4-methyl-piperidine-4-carboxamide]
IC50 (human CB1 receptor [1]): 0.5 nM | IC50 (human CB1 receptor [2]): 3.09 nM

OC[C@@H]1CCCN1c1nc(-c2ccc(C(F)(F)F)nc2)c2nc(-c3ccccc3Cl)n(-c3ccc(Cl)cc3)c2n1 [Compound 163]
IC50 (human CB1 receptor [1]): 0.491 nM | IC50 (human CB1 receptor [2]): 2.78 nM

CCOC1(C(=O)O)CCN(c2nc(OCC(C)(C)O)nc3c2nc(-c2ccccc2Cl)n3-c2ccc(Cl)cc2)CC1 [Compound 218]
IC50 (human CB1 receptor [1]): 7.82 nM

CC(C)(O)COc1nc(N2CCC(C)(C(=O)O)CC2)c2nc(-c3ccc(C#N)nc3)n(-c3ccc(Cl)cc3)c2n1 [Compound 118, 1-[9-(4-chlorophenyl)-8-(6-cyano-3-pyridyl)-2-(2-hydroxy-2-methyl-propoxy)purin-6-yl]-4-methyl-piperidine-4-carboxylic acid]
IC50 (human CB1 receptor [2]): > 5000 nM

CCN(CCO)c1nc(N2CCC(C)(C(N)=O)CC2)c2nc(-c3ccccc3Cl)n(-c3ccc(Cl)cc3)c2n1 [Compound 90, 1-[8-(2-chlorophenyl)-9-(4-chlorophenyl)-2-[ethyl(2-hydroxyethyl)amino]purin-6-yl]-4-methyl-piperidine-4-carboxamide]
IC50 (human CB1 receptor [1]): 0.52 nM | IC50 (human CB1 receptor [2]): 1.36 nM

CN(CCO)c1nc(-c2ccc(C(F)(F)F)nc2)c2nc(-c3ccccc3Cl)n(-c3ccc(Cl)cc3)c2n1 [Compound 165]
IC50 (human CB1 receptor [1]): 0.413 nM | IC50 (human CB1 receptor [2]): 2.03 nM

Cc1nc(C#N)ccc1-c1nc2c(N3CCC(C)(C(N)=O)CC3)nc(OCC(C)(C)O)nc2n1-c1ccc(Cl)cc1 [Compound 107, 1-[9-(4-chlorophenyl)-8-(6-cyano-2-methyl-3-pyridyl)-2-(2-hydroxy-2-methyl-propoxy)purin-6-yl]-4-methyl-piperidine-4-carboxamide]
IC50 (human CB1 receptor [1]): 27.7 nM

CC(C)(O)COc1nc(N2CCC(C)(C(N)=O)CC2)c2nc(-c3ccc(C#N)cc3)n(-c3ccc(Cl)cc3)c2n1 [Compound 106, 1-[9-(4-chlorophenyl)-8-(4-cyanophenyl)-2-(2-hydroxy-2-methyl-propoxy)purin-6-yl]-4-methyl-piperidine-4-carboxamide]
IC50 (human CB1 receptor [1]): 14 nM | IC50 (human CB1 receptor [2]): 50.7 nM

CC(C)(O)COc1nc(N2CC(C(N)=O)C2)c2nc(-c3ccccc3Cl)n(-c3ccc(Cl)cc3)c2n1 [Compound 238]
IC50 (human CB1 receptor [1]): 13.8 nM

CN(CC(C)(C)O)c1nc(N2CC(C(N)=O)C2)c2nc(-c3ccc(C#N)nc3)n(-c3ccc(Cl)cc3)c2n1 [Compound 129]
IC50 (human CB1 receptor [1]): 438 nM

CC(C)(O)COc1nc(N2CCNCC2)c2nc(-c3ccccc3Cl)n(-c3ccc(Cl)cc3)c2n1 [Compound 219]
IC50 (human CB1 receptor [1]): 59.7 nM

CN(CP(C)(C)=O)c1nc(N2CCC(C)(C(N)=O)CC2)c2nc(-c3ccccc3Cl)n(-c3ccc(Cl)cc3)c2n1 [Compound 71, 1-[8-(2-chlorophenyl)-9-(4-chlorophenyl)-2-[dimethylphosphorylmethyl(methyl)amino]purin-6-yl]-4-methyl-piperidine-4-carboxamide]
IC50 (human CB1 receptor [1]): 9.05 nM

NC(=O)N1CC(Nc2nc(N3CCC[C@H]3CO)nc3c2nc(-c2ccccc2Cl)n3-c2ccc(Cl)cc2)C1 [Compound 175]
IC50 (human CB1 receptor [1]): 5.3 nM

CC(C)(O)COc1nc(NCCO)c2nc(-c3ccccc3Cl)n(-c3ccc(Cl)cc3)c2n1 [Compound 98]
IC50 (human CB1 receptor [2]): > 5000 nM

Cc1cnccc1-c1nc2c(N3CCC(C)(C(N)=O)CC3)nc(OCC(C)(C)O)nc2n1-c1ccc(Cl)cc1 [Compound 122, 1-[9-(4-chlorophenyl)-2-(2-hydroxy-2-methyl-propoxy)-8-(3-methyl-4-pyridyl)purin-6-yl]-4-methyl-piperidine-4-carboxamide]
IC50 (human CB1 receptor [1]): 14.6 nM

CC(=O)NC1(C)CN(c2nc(OCC(C)(C)OP(=O)(O)O)nc3c2nc(-c2ccccc2Cl)n3-c2ccc(Cl)cc2)C1 [Compound 239, 1-((6-(3-acetamido-3-methylazetidin-1-yl)-8-(2-chlorophenyl)-9-(4-chlorophenyl)-9H-purin-2-yl)oxy)-2-methylpropan-2-yl dihydrogen phosphate]
IC50 (human CB1 receptor [1]): 27.4 nM
